Results as given in US10844077B2, “Thiazolyl-containing compounds for treating proliferative diseases” (Dana-Farber Cancer Institute, Inc., priority 2014, dated 2020).
Like-named read-outs stand apart in the source and are kept apart here.

What was measured:
Type in all cases: binding
[1] = molecular target: broad panel of kinases (Homo sapiens, UniProt Q07002); details: PCTK3; 1 μM
[2] = molecular target: broad panel of kinases (Homo sapiens, UniProt O75747); details: PIK3C2G; 1 μM
[3] = molecular target: broad panel of kinases (Homo sapiens, UniProt O00750); details: PIK3C2B; 1 μM
[4] = molecular target: broad panel of kinases (Homo sapiens, UniProt O00506); details: YSK1; 1 μM
[5] = molecular target: broad panel of kinases (Homo sapiens, UniProt P42680); details: TEC; 1 μM
[6] = molecular target: broad panel of kinases (Homo sapiens, UniProt P35590); details: TIE1; 1 μM
[7] = molecular target: broad panel of kinases (Homo sapiens, UniProt P00519, F317L); details: 1 μM
[8] = molecular target: broad panel of kinases (Homo sapiens, UniProt P06213); details: INSR; 1 μM
Chain of broad panel of kinases (Homo sapiens, UniProt P06213) (P06213 28-758 limits assumed): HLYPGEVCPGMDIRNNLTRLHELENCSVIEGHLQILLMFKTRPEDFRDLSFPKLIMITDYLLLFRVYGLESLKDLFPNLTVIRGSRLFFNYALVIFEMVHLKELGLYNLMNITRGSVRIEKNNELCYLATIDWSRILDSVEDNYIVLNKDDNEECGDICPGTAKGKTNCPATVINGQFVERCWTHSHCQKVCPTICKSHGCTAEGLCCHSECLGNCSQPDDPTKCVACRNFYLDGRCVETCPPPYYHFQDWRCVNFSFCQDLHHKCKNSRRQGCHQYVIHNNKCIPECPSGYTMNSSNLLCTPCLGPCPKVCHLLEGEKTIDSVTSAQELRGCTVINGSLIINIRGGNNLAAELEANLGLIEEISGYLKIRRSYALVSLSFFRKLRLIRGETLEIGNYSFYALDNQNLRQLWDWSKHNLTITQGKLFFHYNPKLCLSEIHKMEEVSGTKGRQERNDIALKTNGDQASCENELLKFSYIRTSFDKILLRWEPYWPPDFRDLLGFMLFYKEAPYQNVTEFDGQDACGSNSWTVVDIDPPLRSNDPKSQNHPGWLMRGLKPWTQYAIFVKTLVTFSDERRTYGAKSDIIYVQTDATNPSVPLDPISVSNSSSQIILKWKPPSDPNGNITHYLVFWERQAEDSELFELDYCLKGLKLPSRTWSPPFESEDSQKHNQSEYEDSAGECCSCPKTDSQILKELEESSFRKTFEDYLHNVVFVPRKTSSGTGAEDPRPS
Chain of broad panel of kinases (Homo sapiens, UniProt P06213) (P06213 763-1382 limits assumed): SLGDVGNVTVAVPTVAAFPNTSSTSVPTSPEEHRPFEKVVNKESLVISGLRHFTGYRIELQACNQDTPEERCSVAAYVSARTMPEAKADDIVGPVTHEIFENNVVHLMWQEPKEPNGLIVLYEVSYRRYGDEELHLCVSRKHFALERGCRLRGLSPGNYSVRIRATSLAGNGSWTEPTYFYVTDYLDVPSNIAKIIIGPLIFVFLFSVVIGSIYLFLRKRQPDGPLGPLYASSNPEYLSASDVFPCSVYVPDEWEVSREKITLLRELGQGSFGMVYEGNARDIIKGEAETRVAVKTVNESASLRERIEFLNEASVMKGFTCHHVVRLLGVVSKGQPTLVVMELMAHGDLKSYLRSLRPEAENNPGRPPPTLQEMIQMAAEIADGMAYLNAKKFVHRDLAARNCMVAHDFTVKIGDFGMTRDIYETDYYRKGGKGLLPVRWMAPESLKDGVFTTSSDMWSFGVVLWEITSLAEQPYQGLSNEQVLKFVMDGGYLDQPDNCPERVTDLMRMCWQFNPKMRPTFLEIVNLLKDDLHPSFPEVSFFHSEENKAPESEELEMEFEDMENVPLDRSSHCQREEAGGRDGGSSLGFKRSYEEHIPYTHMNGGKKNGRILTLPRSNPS

[9] = molecular target: broad panel of kinases (Homo sapiens, UniProt P49137)
[10] = molecular target: broad panel of kinases (Homo sapiens, UniProt Q8IVW4); details: CDKL3; 1 μM
[11] = molecular target: broad panel of kinases (Homo sapiens, UniProt P27361); details: ERK1; 1 μM
[12] = molecular target: broad panel of kinases (Homo sapiens, UniProt Q15759); details: p38-beta; 1 μM
[13] = molecular target: broad panel of kinases (Homo sapiens, UniProt Q9UM73, C1156Y); details: ALK(C1156Y); 1 μM
Chain of broad panel of kinases (Homo sapiens, UniProt Q9UM73, C1156Y) (Q9UM73 19-1620 C1156Y limits assumed): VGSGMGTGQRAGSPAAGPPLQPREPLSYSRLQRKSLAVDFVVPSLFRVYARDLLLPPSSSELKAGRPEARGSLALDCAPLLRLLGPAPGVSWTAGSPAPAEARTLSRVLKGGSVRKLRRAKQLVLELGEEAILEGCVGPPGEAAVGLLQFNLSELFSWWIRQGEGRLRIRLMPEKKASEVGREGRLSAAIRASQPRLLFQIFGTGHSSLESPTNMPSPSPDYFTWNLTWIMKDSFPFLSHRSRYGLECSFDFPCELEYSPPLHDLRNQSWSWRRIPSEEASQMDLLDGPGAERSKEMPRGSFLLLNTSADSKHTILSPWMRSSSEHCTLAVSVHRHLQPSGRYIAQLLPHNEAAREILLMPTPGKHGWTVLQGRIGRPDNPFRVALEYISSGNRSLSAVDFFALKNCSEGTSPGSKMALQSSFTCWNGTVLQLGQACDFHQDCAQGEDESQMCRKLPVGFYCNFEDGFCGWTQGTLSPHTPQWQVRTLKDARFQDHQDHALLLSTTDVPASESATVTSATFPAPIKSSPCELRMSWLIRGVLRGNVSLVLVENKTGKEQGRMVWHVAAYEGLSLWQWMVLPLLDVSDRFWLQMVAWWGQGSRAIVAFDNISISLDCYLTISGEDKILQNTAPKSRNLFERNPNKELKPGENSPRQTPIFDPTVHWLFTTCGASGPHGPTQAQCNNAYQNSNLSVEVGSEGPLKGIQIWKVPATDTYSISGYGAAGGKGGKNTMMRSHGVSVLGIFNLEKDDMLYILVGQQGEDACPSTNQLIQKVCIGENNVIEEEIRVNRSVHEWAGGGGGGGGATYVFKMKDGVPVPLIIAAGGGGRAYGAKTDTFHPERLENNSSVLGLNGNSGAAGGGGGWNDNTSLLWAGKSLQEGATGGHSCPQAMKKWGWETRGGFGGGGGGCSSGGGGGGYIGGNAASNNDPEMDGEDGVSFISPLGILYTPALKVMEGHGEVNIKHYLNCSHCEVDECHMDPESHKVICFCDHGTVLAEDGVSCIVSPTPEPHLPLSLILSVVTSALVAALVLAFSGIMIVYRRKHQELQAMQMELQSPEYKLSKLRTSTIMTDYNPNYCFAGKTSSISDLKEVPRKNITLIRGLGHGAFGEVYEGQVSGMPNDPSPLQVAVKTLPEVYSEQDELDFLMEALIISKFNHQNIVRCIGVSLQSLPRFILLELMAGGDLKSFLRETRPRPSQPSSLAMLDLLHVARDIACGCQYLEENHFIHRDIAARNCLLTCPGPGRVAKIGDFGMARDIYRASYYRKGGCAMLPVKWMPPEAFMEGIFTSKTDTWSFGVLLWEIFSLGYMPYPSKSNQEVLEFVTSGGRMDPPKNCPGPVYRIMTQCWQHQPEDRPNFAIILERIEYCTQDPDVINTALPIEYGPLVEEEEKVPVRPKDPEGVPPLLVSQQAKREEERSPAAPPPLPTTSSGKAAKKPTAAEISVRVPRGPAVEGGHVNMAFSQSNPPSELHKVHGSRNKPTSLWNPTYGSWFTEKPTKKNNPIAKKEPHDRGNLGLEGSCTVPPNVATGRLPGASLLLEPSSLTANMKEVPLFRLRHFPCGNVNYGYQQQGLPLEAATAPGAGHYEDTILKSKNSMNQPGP

[14] = molecular target: broad panel of kinases (Homo sapiens, UniProt P19525); details: PRKR; 1 μM
[15] = molecular target: broad panel of kinases (Homo sapiens, UniProt P48729); details: CSNK1A1; 1 μM
Chain of broad panel of kinases (Homo sapiens, UniProt P48729) (P48729 2-337 limits assumed): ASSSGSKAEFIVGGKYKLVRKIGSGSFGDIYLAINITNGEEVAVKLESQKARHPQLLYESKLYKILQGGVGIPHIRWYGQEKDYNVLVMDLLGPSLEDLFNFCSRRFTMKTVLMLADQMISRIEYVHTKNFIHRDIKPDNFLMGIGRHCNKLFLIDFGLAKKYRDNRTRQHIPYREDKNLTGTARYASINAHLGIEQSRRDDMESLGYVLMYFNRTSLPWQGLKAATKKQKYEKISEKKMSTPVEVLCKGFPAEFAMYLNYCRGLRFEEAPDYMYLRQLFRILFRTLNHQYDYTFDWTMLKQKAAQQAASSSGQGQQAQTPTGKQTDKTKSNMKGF

[16] = molecular target: broad panel of kinases (Homo sapiens, UniProt P51813); details: BMX; 1 μM
[17] = molecular target: broad panel of kinases (Homo sapiens, UniProt P53779); details: JNK3; 1 μM
[18] = molecular target: broad panel of kinases (Homo sapiens, UniProt P54756); details: EPHA5; 1 μM
Chain of broad panel of kinases (Homo sapiens, UniProt P54756) (P54756 25-1037 limits assumed): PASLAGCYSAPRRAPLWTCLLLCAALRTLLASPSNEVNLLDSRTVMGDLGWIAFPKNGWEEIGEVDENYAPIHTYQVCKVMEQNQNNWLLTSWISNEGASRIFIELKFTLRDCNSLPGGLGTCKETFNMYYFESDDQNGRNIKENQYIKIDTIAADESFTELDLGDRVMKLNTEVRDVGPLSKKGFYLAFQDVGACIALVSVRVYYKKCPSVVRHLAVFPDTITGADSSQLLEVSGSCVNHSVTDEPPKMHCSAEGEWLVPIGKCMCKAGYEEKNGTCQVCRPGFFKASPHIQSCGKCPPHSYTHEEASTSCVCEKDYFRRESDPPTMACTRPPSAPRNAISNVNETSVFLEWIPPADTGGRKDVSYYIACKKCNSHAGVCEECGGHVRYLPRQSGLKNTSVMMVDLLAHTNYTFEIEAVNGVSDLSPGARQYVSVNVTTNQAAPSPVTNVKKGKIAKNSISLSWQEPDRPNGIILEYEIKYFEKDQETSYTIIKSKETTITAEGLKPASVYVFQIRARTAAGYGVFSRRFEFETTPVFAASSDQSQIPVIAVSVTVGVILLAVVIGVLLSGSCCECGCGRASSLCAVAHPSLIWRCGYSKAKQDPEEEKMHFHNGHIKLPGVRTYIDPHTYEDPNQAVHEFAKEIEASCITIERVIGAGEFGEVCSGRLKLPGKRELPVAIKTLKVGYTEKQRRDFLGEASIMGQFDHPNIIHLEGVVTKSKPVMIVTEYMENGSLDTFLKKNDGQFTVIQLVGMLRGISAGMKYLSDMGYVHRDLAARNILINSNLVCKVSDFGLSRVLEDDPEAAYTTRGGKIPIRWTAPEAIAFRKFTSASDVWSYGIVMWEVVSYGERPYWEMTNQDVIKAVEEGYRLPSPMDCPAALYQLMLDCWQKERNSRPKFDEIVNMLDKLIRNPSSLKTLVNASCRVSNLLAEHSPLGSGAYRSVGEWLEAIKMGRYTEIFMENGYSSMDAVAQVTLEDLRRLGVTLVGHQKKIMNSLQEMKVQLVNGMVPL

[19] = molecular target: broad panel of kinases (Homo sapiens, UniProt P17612); details: PKAC-alpha; 1 μM
[20] = molecular target: broad panel of kinases (Homo sapiens, UniProt Q96RR4); details: CAMKK2; 1 μM
Chain of broad panel of kinases (Homo sapiens, UniProt Q96RR4) (Q96RR4 2-588 limits assumed): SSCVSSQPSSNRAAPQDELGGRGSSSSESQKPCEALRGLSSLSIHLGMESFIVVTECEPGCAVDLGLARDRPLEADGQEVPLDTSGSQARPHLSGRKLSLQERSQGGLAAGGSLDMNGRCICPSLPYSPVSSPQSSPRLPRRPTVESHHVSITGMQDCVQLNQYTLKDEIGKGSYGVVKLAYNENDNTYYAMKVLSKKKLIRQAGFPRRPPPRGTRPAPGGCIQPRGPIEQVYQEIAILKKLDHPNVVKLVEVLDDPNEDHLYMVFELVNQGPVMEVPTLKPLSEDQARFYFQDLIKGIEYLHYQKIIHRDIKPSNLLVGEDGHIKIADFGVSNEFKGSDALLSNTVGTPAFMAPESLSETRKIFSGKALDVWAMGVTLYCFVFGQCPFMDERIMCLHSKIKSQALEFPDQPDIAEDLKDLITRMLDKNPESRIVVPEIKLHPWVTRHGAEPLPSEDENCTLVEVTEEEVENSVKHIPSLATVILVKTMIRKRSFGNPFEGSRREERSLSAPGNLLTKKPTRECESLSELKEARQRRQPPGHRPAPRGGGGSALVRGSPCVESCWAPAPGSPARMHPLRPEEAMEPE

[21] = molecular target: broad panel of kinases (Homo sapiens, UniProt Q8IY84); details: NIM1; 1 μM
[22] = molecular target: broad panel of kinases (Homo sapiens, UniProt P11362); details: FGFR1; 1 μM
[23] = molecular target: broad panel of kinases (Homo sapiens, UniProt P29323); details: EPHB2; 1 μM
[24] = molecular target: broad panel of kinases (Homo sapiens, UniProt Q6XUX3); details: RIPK5; 1 μM
[25] = molecular target: broad panel of kinases (Homo sapiens, UniProt Q9UK32); details: 1 μM
[26] = molecular target: broad panel of kinases (Homo sapiens, UniProt P10721, D816V); details: KIT(D816V); 1 μM
[27] = molecular target: broad panel of kinases (Homo sapiens, UniProt Q6ZWH5); details: NEK10; 1 μM
[28] = molecular target: broad panel of kinases (Homo sapiens, UniProt Q6P3R8); details: NEK5; 1 μM
[29] = molecular target: broad panel of kinases (Homo sapiens, UniProt Q99759); details: MAP3K3; 1 μM
[30] = molecular target: broad panel of kinases (Homo sapiens, UniProt Q9H2K8); details: TAOK3; 1 μM
[31] = molecular target: broad panel of kinases (Homo sapiens, UniProt Q9NRP7); details: STK36; 1 μM
[32] = molecular target: broad panel of kinases (Homo sapiens, UniProt P45983); details: JNK1; 1 μM
[33] = molecular target: broad panel of kinases (Homo sapiens, UniProt Q99755); details: PIP5K1A; 1 μM
[34] = molecular target: broad panel of kinases (Homo sapiens, UniProt O14733); details: MKK7; 1 μM
[35] = molecular target: broad panel of kinases (Homo sapiens, UniProt Q00537); details: PCTK2; 1 μM
[36] = molecular target: broad panel of kinases (Homo sapiens, UniProt Q12866); details: MERTK; 1 μM
[37] = molecular target: broad panel of kinases (Homo sapiens, UniProt P09619); details: PDGFRB; 1 μM

| Compound | percent of control binding remaining (lower = stronger binding) [1] | percent of control binding remaining (lower = stronger binding) [2] | percent of control binding remaining (lower = stronger binding) [3] | percent of control binding remaining (lower = stronger binding) [4] | percent of control binding remaining (lower = stronger binding) [5] | percent of control binding remaining (lower = stronger binding) [6] | percent of control binding remaining (lower = stronger binding) [8] | % change compared to control [9] | percent of control binding remaining (lower = stronger binding) [10] | percent of control binding remaining (lower = stronger binding) [11] | percent of control binding remaining (lower = stronger binding) [12] | percent of control binding remaining (lower = stronger binding) [13] | percent of control binding remaining (lower = stronger binding) [14] | percent of control binding remaining (lower = stronger binding) [15] | percent of control binding remaining (lower = stronger binding) [16] | percent of control binding remaining (lower = stronger binding) [17] | percent of control binding remaining (lower = stronger binding) [18] | percent of control binding remaining (lower = stronger binding) [19] | percent of control binding remaining (lower = stronger binding) [20] | percent of control binding remaining (lower = stronger binding) [21] | other results |
| --- | --- | --- | --- | --- | --- | --- | --- | --- | --- | --- | --- | --- | --- | --- | --- | --- | --- | --- | --- | --- | --- |
| C=CC(=O)N1CC[C@H](Nc2nc(CN3CCOCC3)cc(Nc3ncc(C(=O)Nc4c(C)cccc4C)s3)n2)C1 [Example I-2] | 99% | 92% | 86% | 85% | 3.6% | 100% | 67% | 100% | 98% | 97% | 62% | 94% | 89% | 100% | 3.6% | 97% | 0.95% | 85% | 97% | 93% | percent of control binding remaining (lower = stronger binding) ([7]; ABL1(F317L)-nonphosphorylated): 0%; percent of control binding remaining (lower = stronger binding) ([7]; ABL1(F317L)-phosphorylated): 0.5%; percent of control binding remaining (lower = stronger binding) [22]: 91%; percent of control binding remaining (lower = stronger binding) [23]: 0%; percent of control binding remaining (lower = stronger binding) [24]: 100%; percent of control binding remaining (lower = stronger binding) ([25]; RSK4(Kin.Dom.1-N-terminal)): 100%; percent of control binding remaining (lower = stronger binding) ([25]; RSK4(Kin.Dom.2-C-terminal)): 100%; percent of control binding remaining (lower = stronger binding) [26]: 1.7%; percent of control binding remaining (lower = stronger binding) [27]: 93%; percent of control binding remaining (lower = stronger binding) [28]: 96%; percent of control binding remaining (lower = stronger binding) [29]: 79%; percent of control binding remaining (lower = stronger binding) [30]: 81%; percent of control binding remaining (lower = stronger binding) [31]: 3.5%; percent of control binding remaining (lower = stronger binding) [32]: 94%; percent of control binding remaining (lower = stronger binding) [33]: 92%; percent of control binding remaining (lower = stronger binding) [34]: 88%; percent of control binding remaining (lower = stronger binding) [35]: 100%; percent of control binding remaining (lower = stronger binding) [36]: 90%; percent of control binding remaining (lower = stronger binding) [37]: 0% |
| C=CC(=O)N1CC[C@H](Nc2nccc(Nc3ncc(C(=O)Nc4c(C)cccc4C)s3)n2)C1 [Example I-3] | 92% | 97% | 47% | 87% | 3.3% | 100% | 93% | 100% | 81% | 95% | 63% | 84% | 69% | 100% | 4.9% | 91% | 0.85% | 85% | 100% | 84% | % change compared to control ([7]; ABL1(F317L)-nonphosphorylated): 0.5%; % change compared to control ([7]; ABL1(F317L)-phosphorylated): 2%; percent of control binding remaining (lower = stronger binding) [22]: 93%; percent of control binding remaining (lower = stronger binding) [23]: 0%; percent of control binding remaining (lower = stronger binding) [24]: 86%; percent of control binding remaining (lower = stronger binding) ([25]; RSK4(Kin.Dom.1-N-terminal)): 100%; percent of control binding remaining (lower = stronger binding) ([25]; RSK4(Kin.Dom.2-C-terminal)): 97%; percent of control binding remaining (lower = stronger binding) [26]: 14%; percent of control binding remaining (lower = stronger binding) [27]: 90%; percent of control binding remaining (lower = stronger binding) [28]: 87%; percent of control binding remaining (lower = stronger binding) [29]: 94%; percent of control binding remaining (lower = stronger binding) [30]: 91%; percent of control binding remaining (lower = stronger binding) [31]: 25%; percent of control binding remaining (lower = stronger binding) [32]: 81%; percent of control binding remaining (lower = stronger binding) [33]: 91%; percent of control binding remaining (lower = stronger binding) [34]: 85%; percent of control binding remaining (lower = stronger binding) [35]: 81%; percent of control binding remaining (lower = stronger binding) [36]: 100%; % change compared to control [37]: 0% |
